Experimental data published in US20230075856A1, “CYCLIC SULFAMIDE COMPOUNDS FOR TREATMENT OF HBV” (Assembly Biosciences, Inc., priority 2018, published 2023).

Test system: HBV viral load production from HepAD38 cells
Experiment: Viral production from HepAD38 cells: viral load in supernatant by qPCR of the HBV core sequence
Type: cell-based
Conditions: Hepatitis B virus, HePAD38, 120 h, 5 days incubation, qPCR of supernatant HBV DNA vs DMSO control, read-out: viral load lowering EC50 (Activity)
Procedure, shortened: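 HepAD38 cells seeded at 50,000/well in tetracycline-free medium with 2% FBS, treated with compounds (final top concentration 10 μM) for 5 days at 37 °C. Supernatant HBV DNA quantified by TaqMan qPCR of core sequence against HBV DNA standards, relative to DMSO controls; EC50 by four-parameter logistic fit.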

C[C@H](NC(=O)C1CC(C(=O)Nc2ccc(F)c(C#N)c2)N(C)S(=O)(=O)N1)c1ccc(F)cc1 (stereo partly shown) [Compound 774]
EC50: 100 to 10000 nM

C[C@@H](NC(=O)C1CC(C(=O)Nc2ccc(F)c(C#N)c2)N(C)S(=O)(=O)N1)c1ccc(F)cc1 (stereo partly shown) [Compound 776]
EC50: 100 to 10000 nM

Cc1ccccc1CNC(=O)C1CC(C(=O)Nc2ccc(F)c(Cl)c2)N(C)S(=O)(=O)N1 (stereo not shown) [Compound 817]
EC50: < 50 nM

CN1C(C(=O)Nc2ccc(F)c(Cl)c2)CC(C(=O)NCc2ccccc2C(F)(F)F)NS1(=O)=O (stereo not shown) [Compound 818]
EC50: < 50 nM

CN1C(C(=O)Nc2ccc(F)c(Cl)c2)CC(C(=O)NCc2ccccc2F)NS1(=O)=O (stereo not shown) [Compound 819]
EC50: < 50 nM

CN1C(C(=O)Nc2ccc(F)c(Cl)c2)CC(C(=O)NCc2ccccc2Cl)NS1(=O)=O (stereo not shown) [Compound 820]
EC50: < 50 nM

CN1C(C(=O)Nc2ccc(F)c(Cl)c2)CC(C(=O)NCc2ccccc2Br)NS1(=O)=O (stereo not shown) [Compound 821]
EC50: < 50 nM

COc1ccccc1CNC(=O)C1CC(C(=O)Nc2ccc(F)c(Cl)c2)N(C)S(=O)(=O)N1 (stereo not shown) [Compound 822]
EC50: < 50 nM

CN1C(C(=O)Nc2ccc(F)c(Cl)c2)CC(C(=O)NCc2ccccc2-c2cn(C)cn2)NS1(=O)=O (stereo not shown) [Compound 823]
EC50: < 50 nM

CN1C(C(=O)Nc2ccc(F)c(C#N)c2)CC(C(=O)NC2CC2c2ccccc2)NS1(=O)=O (stereo not shown) [Compound 826]
EC50: 100 to 10000 nM

Cc1csc(CNC(=O)C2CC(C(=O)Nc3ccc(F)c(C#N)c3)N(C)S(=O)(=O)N2)n1 (stereo not shown) [Compound 828]
EC50: 100 to 10000 nM

Cc1cnc(CNC(=O)C2CC(C(=O)Nc3ccc(F)c(C#N)c3)N(C)S(=O)(=O)N2)s1 (stereo not shown) [Compound 829]
EC50: 100 to 10000 nM

CN1C(C(=O)Nc2ccc(F)c(C#N)c2)CC(C(=O)NCc2cnc(-c3ccccc3)s2)NS1(=O)=O (stereo not shown) [Compound 830]
EC50: 50 to 100 nM

Cc1cccc(CNC(=O)C2CC(C(=O)Nc3ccc(F)c(C#N)c3)N(C)S(=O)(=O)N2)n1 (stereo not shown) [Compound 831]
EC50: 100 to 10000 nM

COc1ccc(CNC(=O)C2CC(C(=O)Nc3ccc(F)c(C#N)c3)N(C)S(=O)(=O)N2)cc1 (stereo not shown) [Compound 832]
EC50: 50 to 100 nM

CN1C(C(=O)Nc2ccc(F)c(C#N)c2)CC(C(=O)NCc2ccccc2)NS1(=O)=O (stereo not shown) [Compound 833]
EC50: 100 to 10000 nM

C[C@@H](NC(=O)C1CC(C(=O)Nc2ccc(F)c(C#N)c2)N(C)S(=O)(=O)N1)c1ccccc1 (stereo partly shown) [Compound 834]
EC50: 100 to 10000 nM

COc1cccc(CNC(=O)C2CC(C(=O)Nc3ccc(F)c(C#N)c3)N(C)S(=O)(=O)N2)c1 (stereo not shown) [Compound 835]
EC50: 50 to 100 nM

CN1C(C(=O)Nc2ccc(F)c(C#N)c2)CC(C(=O)NCc2ccc(Cl)cc2)NS1(=O)=O (stereo not shown) [Compound 836]
EC50: 50 to 100 nM

CN1C(C(=O)Nc2ccc(F)c(C#N)c2)CC(C(=O)NCc2cccc(Cl)c2)NS1(=O)=O (stereo not shown) [Compound 837]
EC50: < 50 nM

Cc1c(CNC(=O)C2CC(C(=O)Nc3ccc(F)c(C#N)c3)N(C)S(=O)(=O)N2)cnn1C (stereo not shown) [Compound 838]
EC50: 100 to 10000 nM

CC(=O)N1CCC(NC(=O)C2CC(C(=O)Nc3ccc(F)c(Cl)c3)N(C)S(=O)(=O)N2)CC1 (stereo not shown) [Compound 851]
EC50: 100 to 10000 nM

CN1C(C(=O)Nc2ccc(F)c(Cl)c2)CC(C(=O)NC2CCN(C(=O)OCc3ccccc3)CC2)NS1(=O)=O (stereo not shown) [Compound 852]
EC50: 100 to 10000 nM

CN1C(C(=O)Nc2ccc(F)c(Cl)c2)CC(C(=O)NC2CCN(C(=O)C3CC3)CC2)NS1(=O)=O (stereo not shown) [Compound 854]
EC50: < 50 nM

CN1C(C(=O)Nc2ccc(F)c(Cl)c2)CC(C(=O)NC2CCN(c3ncccn3)CC2)NS1(=O)=O (stereo not shown) [Compound 855]
EC50: < 50 nM

CN1C(C(=O)Nc2ccc(F)c(Cl)c2)CC(C(=O)NC2CCN(S(=O)(=O)C(F)(F)F)CC2)NS1(=O)=O (stereo not shown) [Compound 856]
EC50: 100 to 10000 nM

CN1C(C(=O)Nc2ccc(F)c(Cl)c2)CC(C(=O)NC2CC3CCC2C3)NS1(=O)=O (stereo not shown) [Compound 858]
EC50: 100 to 10000 nM

CN1C(C(=O)Nc2ccc(F)c(Cl)c2)CC(C(=O)NC2CCC(F)(F)CC2)NS1(=O)=O (stereo not shown) [Compound 859]
EC50: 100 to 10000 nM

CC(C)OC1CCC(NC(=O)C2CC(C(=O)Nc3ccc(F)c(Cl)c3)N(C)S(=O)(=O)N2)CC1 (stereo not shown) [Compound 862]
EC50: < 50 nM

CN1C(C(=O)Nc2ccc(F)c(C#N)c2)CC(C(=O)NCc2nc3ccccc3s2)NS1(=O)=O (stereo not shown) [Compound 866]
EC50: 100 to 10000 nM

CN1C(C(=O)Nc2ccc(F)c(C#N)c2)CC(C(=O)NC2CCN(C(=O)OC(C)(C)C)CC2)NS1(=O)=O (stereo not shown) [Compound 868]
EC50: < 50 nM

CCN1C(C(=O)Nc2ccc(F)c(Cl)c2)CC(C(=O)NCc2cnc(C)s2)NS1(=O)=O (stereo not shown) [Compound 888]
EC50: 100 to 10000 nM

CCN1C(C(=O)Nc2ccc(F)c(Cl)c2)CC(C(=O)NC2CCN(C(=O)OC)CC2)NS1(=O)=O (stereo not shown) [Compound 890]
EC50: < 50 nM

Cc1ncc(CNC(=O)C2CC(C(=O)Nc3ccc(F)c(Cl)c3)N(CC(F)(F)F)S(=O)(=O)N2)s1 (stereo not shown) [Compound 891]
EC50: 100 to 10000 nM

COC(=O)N1CCC(NC(=O)C2CC(C(=O)Nc3ccc(F)c(Cl)c3)N(CC(F)(F)F)S(=O)(=O)N2)CC1 (stereo not shown) [Compound 893]
EC50: < 50 nM

COCCN1C(C(=O)Nc2ccc(F)c(Cl)c2)CC(C(=O)NC2CCN(C(=O)OC)CC2)NS1(=O)=O (stereo not shown) [Compound 896]
EC50: 100 to 10000 nM

CN1C(C(=O)Nc2ccc(F)c(Cl)c2)CC(C(=O)NCc2ccccc2N2CCCCC2)NS1(=O)=O (stereo not shown) [Compound 906]
EC50: 100 to 10000 nM

CN1C(C(=O)Nc2ccc(F)c(Cl)c2)CC(C(=O)NCc2ccccc2N2CCOCC2)NS1(=O)=O (stereo not shown) [Compound 907]
EC50: 50 to 100 nM

CN1C(C(=O)Nc2ccc(F)c(Cl)c2)CC(C(=O)NCc2ccccc2-n2cccn2)NS1(=O)=O (stereo not shown) [Compound 909]
EC50: < 50 nM

CN1C(C(=O)Nc2ccc(F)c(Cl)c2)CC(C(=O)NCc2ccccc2-n2ccnc2)NS1(=O)=O (stereo not shown) [Compound 910]
EC50: 50 to 100 nM

CN1C(C(=O)Nc2ccc(F)c(Cl)c2)CC(C(=O)NCc2cnc(-c3cccnc3)s2)NS1(=O)=O (stereo not shown) [Compound 911]
EC50: 50 to 100 nM

CN1C(C(=O)Nc2ccc(F)c(Cl)c2)CC(C(=O)NCc2cnc(-c3ccccc3Cl)s2)NS1(=O)=O (stereo not shown) [Compound 912]
EC50: < 50 nM

CN1C(C(=O)Nc2ccc(F)c(Cl)c2)CC(C(=O)NCc2cnc(-c3cccc(Cl)c3)s2)NS1(=O)=O (stereo not shown) [Compound 913]
EC50: 50 to 100 nM

Cc1nc(-c2ccccc2)sc1CNC(=O)C1CC(C(=O)Nc2ccc(F)c(Cl)c2)N(C)S(=O)(=O)N1 (stereo not shown) [Compound 914]
EC50: < 50 nM

CN1C(C(=O)Nc2ccc(F)c(Cl)c2)CC(C(=O)NCc2cnc(-c3ccc(C(F)(F)F)cc3)s2)NS1(=O)=O (stereo not shown) [Compound 915]
EC50: 100 to 10000 nM

CN1C(C(=O)Nc2ccc(F)c(Cl)c2)CC(C(=O)NCc2cnc(-c3ccc(F)cc3)s2)NS1(=O)=O (stereo not shown) [Compound 916]
EC50: < 50 nM

CN1C(C(=O)Nc2ccc(F)c(Cl)c2)CC(C(=O)NC2CCCc3nc(-c4ccccc4)sc32)NS1(=O)=O (stereo not shown) [Compound 917]
EC50: < 50 nM

Cc1nc2c(s1)C(NC(=O)C1CC(C(=O)Nc3ccc(F)c(Cl)c3)N(C)S(=O)(=O)N1)CCC2 (stereo not shown) [Compound 918]
EC50: < 50 nM

CN1C(C(=O)Nc2ccc(F)c(Cl)c2)CC(C(=O)NCc2cnc(-c3ccc(C#N)cc3F)s2)NS1(=O)=O (stereo not shown) [Compound 920]
EC50: < 50 nM

CCN1CCC(Oc2ccc(-c3ncc(CNC(=O)C4CC(C(=O)Nc5ccc(F)c(Cl)c5)N(C)S(=O)(=O)N4)s3)cc2)CC1 (stereo not shown) [Compound 921]
EC50: 50 to 100 nM

CN1C(C(=O)Nc2ccc(F)c(Cl)c2)CC(C(=O)NCc2cnc(-c3ccc(OCCN4CCCCC4)cc3)s2)NS1(=O)=O (stereo not shown) [Compound 922]
EC50: < 50 nM

CN1C(C(=O)Nc2ccc(F)c(Cl)c2)CC(C(=O)NCc2cnc(-c3ccc(SCCCO)cc3)s2)NS1(=O)=O (stereo not shown) [Compound 923]
EC50: 50 to 100 nM

CN1C(C(=O)Nc2ccc(F)c(Cl)c2)CC(C(=O)NCc2cnc(-c3ccc(O)cc3)s2)NS1(=O)=O (stereo not shown) [Compound 924]
EC50: < 50 nM

CN1C(C(=O)Nc2ccc(F)c(Cl)c2)CC(C(=O)NCc2cnc(-c3ccc(C#CCCO)cc3)s2)NS1(=O)=O (stereo not shown) [Compound 926]
EC50: < 50 nM

CN1C(C(=O)Nc2ccc(F)c(Cl)c2)CC(C(=O)NCc2cnc(-c3ccc(OCCCN4CCCC4)cc3)s2)NS1(=O)=O (stereo not shown) [Compound 928]
EC50: 50 to 100 nM

CN1C(C(=O)Nc2ccc(F)c(Cl)c2)CC(C(=O)NCc2cnc(-c3cscn3)s2)NS1(=O)=O (stereo not shown) [Compound 929]
EC50: < 50 nM

COc1ccc(-c2ncc(CNC(=O)C3CC(C(=O)Nc4ccc(F)c(Cl)c4)N(C)S(=O)(=O)N3)s2)cc1 (stereo not shown) [Compound 932]
EC50: < 50 nM

CN1C(C(=O)Nc2ccc(F)c(Cl)c2)CC(C(=O)NCc2cnc(-c3ccc(OCCCN4CCCCC4)cc3)s2)NS1(=O)=O (stereo not shown) [Compound 942]
EC50: 50 to 100 nM

CN(C)CC(C)(C)COc1ccc(-c2ncc(CNC(=O)C3CC(C(=O)Nc4ccc(F)c(Cl)c4)N(C)S(=O)(=O)N3)s2)cc1 (stereo not shown) [Compound 943]
EC50: < 50 nM

CN1C(C(=O)Nc2ccc(F)c(Cl)c2)CC(C(=O)NCc2cnc(-c3ccc(C#CCN4CCCCC4)cc3)s2)NS1(=O)=O (stereo not shown) [Compound 946]
EC50: 50 to 100 nM

CN1C(C(=O)Nc2ccc(F)c(Cl)c2)CC(C(=O)NCc2csc(-c3ccc(OCCN4CCCCC4)cc3)n2)NS1(=O)=O (stereo not shown) [Compound 957]
EC50: < 50 nM

CN1C(C(=O)Nc2ccc(F)c(Cl)c2)CC(C(=O)NCC2CCN(c3ccccn3)CC2)NS1(=O)=O (stereo not shown) [Compound 961]
EC50: 100 to 10000 nM

CN1C(C(=O)Nc2ccc(F)c(Cl)c2)CC(C(=O)NC2CCN(C(=O)OCCN3CCCCC3)CC2)NS1(=O)=O (stereo not shown) [Compound 963]
EC50: 100 to 10000 nM

CN1C(C(=O)Nc2ccc(F)c(Cl)c2)CC(C(=O)NC2CCN(C(=O)OCCCN3CCCCC3)CC2)NS1(=O)=O (stereo not shown) [Compound 964]
EC50: 100 to 10000 nM

Cc1ccnc(N2CCC(NC(=O)C3CC(C(=O)Nc4ccc(F)c(Cl)c4)N(C)S(=O)(=O)N3)CC2)c1 (stereo not shown) [Compound 971]
EC50: < 50 nM

COc1ccnc(N2CCC(NC(=O)C3CC(C(=O)Nc4ccc(F)c(Cl)c4)N(C)S(=O)(=O)N3)CC2)c1 (stereo not shown) [Compound 972]
EC50: < 50 nM

CN1C(C(=O)Nc2ccc(F)c(Cl)c2)CC(C(=O)NC2CCN(c3cc(Cl)ccn3)CC2)NS1(=O)=O (stereo not shown) [Compound 974]
EC50: < 50 nM
